Source: patent publication US20090137572A1, “2-substituted-4-heteroaryl-pyrimidines useful for the treatment of proliferative disorders” (priority 2004, published 2009)

Assays:
Format in all cases: biochemical
MNK2 = MNK2 (Homo sapiens, UniProt Q9HBH9); assay: Kinase selectivity profile, MNK2; conditions: 5 μM test compound, compared to control; ATP 50 μM
Experimental: (§1) The kinase selectivity profiles of selected example compounds were determined, essentially as described (Bain, J.; McLauchlan, H.; Elliott, M.; Cohen, P. Biochemical Journal, 2003, 371, 199.); the results are shown in Tables 3 & 4. For the assays shown in Table 3, the kinases were assayed at the following ATP concentrations: SAPK4, PKBΔph, GSK3b, SAPK3, CK2, MKK1, PIM2, IKKB, ERK8, and PRK2 at 5 μM; JNK, PRAK, ROCK-II, SAPK2b, CDK2, CHK1, MSK1, CSK, P70S6K, PKA, CK1, MAPKAP-K2, SGK, PKCa, PDK1, NEK 7, and MAPKAP-K3 at 20 μM; SAPK2a, LCK, AMPK, MAPK2, DYRK1a, MAPKAP-K1a, NEK-6, NEK2a, PBK, CAMK-1, SRPK-1, JNK3, MNK2, RSK2, MNK1, PKBB, and SmMLCK at 50 μM. For the assays in Table 4 the ATP concentration was 100 μM throughout.

CK1 = assay: Kinase selectivity profile, CK1; conditions: 5 μM test compound, compared to control; ATP 20 μM
Experimental: as §1

DYRK1a = DYRK1a (Homo sapiens, UniProt Q13627); assay: Kinase selectivity profile, DYRK1a; conditions: 5 μM test compound, compared to control; ATP 50 μM
Experimental: as §1

SGK = SGK (Homo sapiens, UniProt O00141); assay: Kinase selectivity profile, SGK; conditions: 5 μM test compound, compared to control; ATP 20 μM
Experimental: as §1

ERK8 = ERK8 (Homo sapiens, UniProt Q8TD08); assay: Kinase selectivity profile, ERK8; conditions: 5 μM test compound, compared to control; ATP 5 μM
Experimental: as §1

smMLCK = smMLCK (Homo sapiens, UniProt Q15746); assay: Kinase selectivity profile, smMLCK; conditions: 5 μM test compound, compared to control; ATP 50 μM
Experimental: as §1

CSK = CSK (Homo sapiens, UniProt P41240); assay: Kinase selectivity profile, CSK; conditions: 5 μM test compound, compared to control; ATP 20 μM
Experimental: as §1

ROCK-II = ROCK-II (Homo sapiens, UniProt O75116); assay: Kinase selectivity profile, ROCK-II; conditions: 5 μM test compound, compared to control; ATP 20 μM
Experimental: as §1

PKB = assay: Kinase selectivity profile, PKB; conditions: 5 μM test compound, compared to control; ATP 5 μM (PKBΔph)
Experimental: as §1

CDK2-cycline E = CDK2-cycline E (Homo sapiens, UniProt P24941); assay: Kinase assay (radioactive phosphate incorporation), CDK2-cyclin E; conditions: read-out: Kinase Inhibition pIC50 CDK2-cycline E (converted)
Outline: (§2)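 Recombinant kinases (2-4 μg) with polypeptide substrates in pH 7.4 MOPS/β-glycerophosphate buffer. Reactions started with 15 mM MgCl2 + 100 μM ATP containing [γ-32P]-ATP and incubated at 30° C. Filter-bound incorporated radioactivity counted by scintillation; compounds diluted from DMSO stocks into 10% DMSO buffer.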

PHK = assay: Kinase selectivity profile, PHK; conditions: 5 μM test compound, compared to control
Experimental: as §1

MAPK2/ERK2 = MAPK2/ERK2 (Homo sapiens, UniProt P28482); assay: Kinase selectivity profile, MAPK2/ERK2; conditions: 5 μM test compound, compared to control; ATP 50 μM
Experimental: as §1

PRAK = PRAK (Homo sapiens, UniProt Q8IW41); assay: Kinase selectivity profile, PRAK; conditions: 5 μM test compound, compared to control; ATP 20 μM
Experimental: as §1

CDK4-cyclin D1 = CDK4-cyclin D1 (Homo sapiens, UniProt P11802); assay: Kinase assay (radioactive phosphate incorporation), CDK4-cyclin D1; conditions: read-out: Kinase Inhibition pIC50 CDK4-cyclin D1 (converted)
Outline: as §2

[1] = target: T1, protein kinases (panel of Table 4) (Homo sapiens, UniProt Q16539); assay: Kinase selectivity profile, kinase inhibition IC50 (Table 4), ATP 100 μM; conditions: kinase SAPK2a
T1 construct: other: kinase SAPK2a; ATP 100 μM

PIM2 = PIM2 (Homo sapiens, UniProt Q9P1W9); assay: Kinase selectivity profile, PIM2; conditions: 5 μM test compound, compared to control; ATP 5 μM
Experimental: as §1

Aurora B = Aurora B (Homo sapiens, UniProt Q96GD4); assay: Kinase selectivity profile, Aurora B; conditions: 5 μM test compound, compared to control
Experimental: as §1

SAPK3/p38g = SAPK3/p38g (Homo sapiens, UniProt P53778); assay: Kinase selectivity profile, SAPK3/p38g; conditions: 5 μM test compound, compared to control; ATP 5 μM
Experimental: as §1

CAMK-1 = CAMK-1 (Homo sapiens, UniProt Q14012); assay: Kinase selectivity profile, CAMK-1; conditions: 5 μM test compound, compared to control; ATP 50 μM
Experimental: as §1

SAPK4/p38d = SAPK4/p38d (Homo sapiens, UniProt O15264); assay: Kinase selectivity profile, SAPK4/p38d; conditions: 5 μM test compound, compared to control; ATP 5 μM
Experimental: as §1

SAPK2a/p38 = SAPK2a/p38 (Homo sapiens, UniProt Q16539); assay: Kinase selectivity profile, SAPK2a/p38; conditions: 5 μM test compound, compared to control; ATP 50 μM
Experimental: as §1

Chain of CDK4-cyclin D1 (P11802 whole entry): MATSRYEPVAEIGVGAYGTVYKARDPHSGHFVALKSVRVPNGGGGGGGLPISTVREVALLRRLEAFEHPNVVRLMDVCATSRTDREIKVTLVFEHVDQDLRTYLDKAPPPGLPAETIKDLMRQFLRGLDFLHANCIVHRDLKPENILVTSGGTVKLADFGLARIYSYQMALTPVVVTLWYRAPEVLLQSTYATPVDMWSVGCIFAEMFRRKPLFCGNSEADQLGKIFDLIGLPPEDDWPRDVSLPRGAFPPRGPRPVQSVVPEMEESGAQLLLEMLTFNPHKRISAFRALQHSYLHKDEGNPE
Chain of CDK4-cyclin D1 (P24385 whole entry partner): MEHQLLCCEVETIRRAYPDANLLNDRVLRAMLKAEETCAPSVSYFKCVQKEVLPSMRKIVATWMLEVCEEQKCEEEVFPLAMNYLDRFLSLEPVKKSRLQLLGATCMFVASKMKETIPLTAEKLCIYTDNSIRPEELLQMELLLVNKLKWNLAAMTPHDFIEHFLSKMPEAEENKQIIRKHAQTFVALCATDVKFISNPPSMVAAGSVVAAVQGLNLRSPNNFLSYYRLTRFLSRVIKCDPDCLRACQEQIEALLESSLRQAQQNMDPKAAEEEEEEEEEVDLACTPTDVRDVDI
Chain of ROCK-II (O75116 whole entry, species assumed): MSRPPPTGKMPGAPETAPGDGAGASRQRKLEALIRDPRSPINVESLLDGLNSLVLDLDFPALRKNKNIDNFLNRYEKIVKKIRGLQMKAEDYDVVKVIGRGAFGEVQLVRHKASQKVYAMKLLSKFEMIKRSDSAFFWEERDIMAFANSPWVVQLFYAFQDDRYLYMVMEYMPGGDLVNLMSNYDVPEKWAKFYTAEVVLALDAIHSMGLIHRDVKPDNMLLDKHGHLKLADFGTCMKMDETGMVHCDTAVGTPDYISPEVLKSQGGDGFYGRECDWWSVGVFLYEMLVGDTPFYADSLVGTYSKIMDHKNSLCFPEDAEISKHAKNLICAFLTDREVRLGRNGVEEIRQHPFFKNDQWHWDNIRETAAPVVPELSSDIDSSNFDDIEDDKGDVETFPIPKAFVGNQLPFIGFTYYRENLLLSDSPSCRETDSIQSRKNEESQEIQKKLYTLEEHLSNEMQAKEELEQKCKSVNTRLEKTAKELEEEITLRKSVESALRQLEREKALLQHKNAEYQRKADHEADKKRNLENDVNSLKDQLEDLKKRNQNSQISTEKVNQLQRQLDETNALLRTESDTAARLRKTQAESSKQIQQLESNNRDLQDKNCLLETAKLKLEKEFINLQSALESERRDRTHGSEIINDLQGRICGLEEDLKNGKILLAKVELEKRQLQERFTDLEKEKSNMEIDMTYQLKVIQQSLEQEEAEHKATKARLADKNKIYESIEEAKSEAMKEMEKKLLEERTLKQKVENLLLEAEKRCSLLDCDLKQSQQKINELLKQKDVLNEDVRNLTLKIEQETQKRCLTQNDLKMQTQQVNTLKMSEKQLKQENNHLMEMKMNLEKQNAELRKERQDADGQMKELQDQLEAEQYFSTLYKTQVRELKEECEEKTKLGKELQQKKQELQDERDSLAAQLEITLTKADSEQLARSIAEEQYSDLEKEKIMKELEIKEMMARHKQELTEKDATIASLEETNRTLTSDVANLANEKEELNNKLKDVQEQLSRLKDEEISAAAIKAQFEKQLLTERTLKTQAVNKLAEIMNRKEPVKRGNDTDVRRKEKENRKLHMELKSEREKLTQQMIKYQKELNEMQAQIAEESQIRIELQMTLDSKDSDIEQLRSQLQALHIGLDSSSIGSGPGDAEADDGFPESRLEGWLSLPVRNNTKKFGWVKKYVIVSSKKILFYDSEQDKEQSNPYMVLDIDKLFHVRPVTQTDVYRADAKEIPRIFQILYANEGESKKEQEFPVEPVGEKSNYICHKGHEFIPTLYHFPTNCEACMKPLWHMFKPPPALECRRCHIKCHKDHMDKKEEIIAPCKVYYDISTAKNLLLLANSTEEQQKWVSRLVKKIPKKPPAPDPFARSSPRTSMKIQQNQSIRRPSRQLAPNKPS
Chain of SAPK3/p38g (P53778 whole entry): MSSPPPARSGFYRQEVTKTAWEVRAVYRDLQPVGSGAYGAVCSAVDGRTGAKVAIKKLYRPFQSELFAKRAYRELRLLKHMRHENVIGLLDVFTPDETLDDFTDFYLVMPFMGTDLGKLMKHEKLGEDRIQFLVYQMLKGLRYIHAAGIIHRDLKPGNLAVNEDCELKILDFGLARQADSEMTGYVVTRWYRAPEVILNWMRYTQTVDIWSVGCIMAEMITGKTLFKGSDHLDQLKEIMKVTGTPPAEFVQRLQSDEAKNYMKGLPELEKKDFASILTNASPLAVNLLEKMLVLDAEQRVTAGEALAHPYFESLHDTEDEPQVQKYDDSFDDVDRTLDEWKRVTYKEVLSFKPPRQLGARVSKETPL
Chain of Aurora B (Q96GD4 whole entry): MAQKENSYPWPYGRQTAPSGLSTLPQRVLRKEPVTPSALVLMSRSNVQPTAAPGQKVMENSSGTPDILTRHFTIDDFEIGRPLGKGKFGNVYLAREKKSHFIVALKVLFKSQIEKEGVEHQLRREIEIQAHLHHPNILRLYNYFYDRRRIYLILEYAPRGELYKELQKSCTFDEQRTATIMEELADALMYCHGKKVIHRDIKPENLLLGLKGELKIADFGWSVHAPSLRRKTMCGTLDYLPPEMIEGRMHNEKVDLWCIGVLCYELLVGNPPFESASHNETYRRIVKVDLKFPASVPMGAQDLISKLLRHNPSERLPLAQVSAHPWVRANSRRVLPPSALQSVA
T1 sequence (Q16539 whole entry): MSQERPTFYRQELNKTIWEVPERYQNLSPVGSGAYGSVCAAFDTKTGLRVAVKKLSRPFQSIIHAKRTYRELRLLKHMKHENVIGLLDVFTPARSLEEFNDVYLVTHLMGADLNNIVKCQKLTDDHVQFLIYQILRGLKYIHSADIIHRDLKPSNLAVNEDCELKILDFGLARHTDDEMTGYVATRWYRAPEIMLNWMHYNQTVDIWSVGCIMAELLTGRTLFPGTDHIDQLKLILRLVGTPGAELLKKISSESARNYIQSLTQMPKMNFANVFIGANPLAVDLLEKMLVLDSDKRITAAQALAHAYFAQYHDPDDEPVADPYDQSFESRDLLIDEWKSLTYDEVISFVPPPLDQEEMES
Chain of SAPK2a/p38 (Q16539 whole entry): as above
Chain of PRAK (Q8IW41 whole entry, species assumed): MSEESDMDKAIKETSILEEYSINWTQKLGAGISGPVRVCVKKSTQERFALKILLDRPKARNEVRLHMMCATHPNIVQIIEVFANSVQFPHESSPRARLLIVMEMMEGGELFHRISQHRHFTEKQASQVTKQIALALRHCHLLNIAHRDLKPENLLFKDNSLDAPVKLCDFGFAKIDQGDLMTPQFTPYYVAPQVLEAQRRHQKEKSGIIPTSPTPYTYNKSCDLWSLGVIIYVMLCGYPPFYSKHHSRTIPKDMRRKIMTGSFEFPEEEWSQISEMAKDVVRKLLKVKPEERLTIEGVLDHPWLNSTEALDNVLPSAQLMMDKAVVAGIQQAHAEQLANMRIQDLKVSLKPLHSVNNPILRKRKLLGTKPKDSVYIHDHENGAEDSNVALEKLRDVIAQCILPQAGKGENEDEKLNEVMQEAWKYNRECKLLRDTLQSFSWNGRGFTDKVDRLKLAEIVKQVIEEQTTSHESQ
Chain of SGK (O00141 whole entry, species assumed): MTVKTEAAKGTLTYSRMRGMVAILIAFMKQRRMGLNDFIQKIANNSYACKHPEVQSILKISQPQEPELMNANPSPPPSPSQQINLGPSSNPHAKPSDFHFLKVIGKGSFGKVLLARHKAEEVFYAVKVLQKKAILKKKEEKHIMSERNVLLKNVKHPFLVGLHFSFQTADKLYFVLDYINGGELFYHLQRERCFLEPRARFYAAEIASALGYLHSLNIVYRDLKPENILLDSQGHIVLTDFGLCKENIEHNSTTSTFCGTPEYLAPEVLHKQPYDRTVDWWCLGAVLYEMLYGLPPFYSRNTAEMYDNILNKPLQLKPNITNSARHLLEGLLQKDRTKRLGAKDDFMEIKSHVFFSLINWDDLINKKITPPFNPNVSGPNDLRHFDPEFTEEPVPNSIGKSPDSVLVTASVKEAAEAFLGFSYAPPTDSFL
Chain of PIM2 (Q9P1W9 whole entry, species assumed): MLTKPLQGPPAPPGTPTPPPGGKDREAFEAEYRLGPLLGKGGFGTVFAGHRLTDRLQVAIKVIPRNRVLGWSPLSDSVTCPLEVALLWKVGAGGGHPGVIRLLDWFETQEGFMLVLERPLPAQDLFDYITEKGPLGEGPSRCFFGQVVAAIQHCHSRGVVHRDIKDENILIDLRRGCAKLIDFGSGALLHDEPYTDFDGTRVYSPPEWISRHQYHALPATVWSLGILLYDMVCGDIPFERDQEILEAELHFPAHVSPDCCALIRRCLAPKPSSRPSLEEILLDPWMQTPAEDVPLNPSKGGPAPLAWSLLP
Chain of ERK8 (Q8TD08 whole entry, species assumed): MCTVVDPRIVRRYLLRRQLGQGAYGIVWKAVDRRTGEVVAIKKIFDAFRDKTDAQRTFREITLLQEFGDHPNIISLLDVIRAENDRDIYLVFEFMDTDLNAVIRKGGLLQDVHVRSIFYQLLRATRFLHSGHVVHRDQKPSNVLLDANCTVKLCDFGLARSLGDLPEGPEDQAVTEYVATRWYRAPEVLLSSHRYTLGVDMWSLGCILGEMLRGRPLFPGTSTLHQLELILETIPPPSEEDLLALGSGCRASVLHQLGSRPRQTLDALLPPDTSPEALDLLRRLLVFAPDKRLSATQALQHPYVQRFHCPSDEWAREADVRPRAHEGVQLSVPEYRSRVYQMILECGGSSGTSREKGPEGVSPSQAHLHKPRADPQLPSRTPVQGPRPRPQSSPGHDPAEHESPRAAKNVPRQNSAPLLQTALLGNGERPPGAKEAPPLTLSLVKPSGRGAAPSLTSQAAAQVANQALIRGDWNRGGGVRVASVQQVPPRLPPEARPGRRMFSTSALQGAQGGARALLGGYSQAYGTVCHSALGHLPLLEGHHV

IC50 (CDK2-cycline E)	IC50 (CDK4-cyclin D1)	Compound	remaining activity at 5 µM (MNK2)	Remaining activity (%) CK1 (CK1)	remaining activity at 5 µM (DYRK1a)	remaining activity at 5 µM (SGK)	remaining activity at 5 µM (ERK8)	remaining activity at 5 µM (smMLCK)	remaining activity at 5 µM (CSK)	remaining activity at 5 µM (ROCK-II)	Remaining activity (%) PKB (PKB)	Remaining activity (%) PHK (PHK)	remaining activity at 5 µM (MAPK2/ERK2)	remaining activity at 5 µM (PRAK)	IC50 [1]	remaining activity at 5 µM (PIM2)	remaining activity at 5 µM (Aurora B)	remaining activity at 5 µM (SAPK3/p38g)	remaining activity at 5 µM (CAMK-1)	remaining activity at 5 µM (SAPK4/p38d)	further results
251 nM	1580 nM	COCCNS(=O)(=O)c1cccc(Nc2nccc(-c3sc(N)nc3C)n2)c1 [Compound 55, 3-[4-(2-Amino-4-methyl-thiazol-5-yl)-pyrimidin-2-ylamino]-N-(2-methoxy-ethyl)-benzenesulfonamide]	–	–	–	–	–	–	–	–	–	–	–	–	–	–	–	–	–	–	–
–	15.8 nM	CNc1nc(C)c(-c2ccnc(Nc3cccc(S(N)(=O)=O)c3)n2)s1 [Compound 19, 3-[4-(4-Methyl-2-methylamino-thiazol-5-yl)-pyrimidin-2-ylamino]-benzenesulfonamide]	–	–	–	–	–	–	–	–	–	–	–	–	580 nM	–	–	–	–	–	–
3160 nM	–	CNc1nc(C)c(-c2ccnc(Nc3ccc(C)c(S(=O)(=O)N4CCOCC4)c3)n2)s1 [Compound 37, [4-(4-Methyl-2-methylamino-thiazol-5-yl)-pyrimidin-2-yl]-[4-methyl-3-(morpholine-4-sulfonyl)-phenyl]-amine]	–	–	–	–	–	–	–	–	–	–	–	–	–	–	–	–	–	–	–
3.16 nM	158 nM	CNc1nc(C)c(-c2ccnc(Nc3cccc(S(C)(=O)=O)c3)n2)s1 [Compound 27, (3-Methanesulfonyl-phenyl)-[4-(4-methyl-2-methylamino-thiazol-5-yl)-pyrimidin-2-yl]-amine]	–	–	–	–	–	–	–	–	–	–	–	–	–	–	–	–	–	–	–

Compound	IC50 (CDK2-cycline E)	IC50 (CDK4-cyclin D1)	remaining activity at 5 µM (MNK2)	Remaining activity (%) CK1 (CK1)	remaining activity at 5 µM (DYRK1a)	remaining activity at 5 µM (SGK)	remaining activity at 5 µM (ERK8)	remaining activity at 5 µM (smMLCK)	remaining activity at 5 µM (CSK)	remaining activity at 5 µM (ROCK-II)	Remaining activity (%) PKB (PKB)	Remaining activity (%) PHK (PHK)	remaining activity at 5 µM (MAPK2/ERK2)	remaining activity at 5 µM (PRAK)	IC50 [1]	remaining activity at 5 µM (PIM2)	remaining activity at 5 µM (Aurora B)	remaining activity at 5 µM (SAPK3/p38g)	remaining activity at 5 µM (CAMK-1)	remaining activity at 5 µM (SAPK4/p38d)	further results
CCNc1nc(C)c(-c2ccnc(Nc3ccc(N4CCNCC4)cc3)n2)s1 [Compound 59, [4-(2-Ethylamino-4-methyl-thiazol-5-yl)-pyrimidin-2-yl]-(4-piperazin-1-yl-phenyl)-amine]	158 nM	39.8 nM	20%	3%	4%	0%	4%	10%	14%	5%	82%	3%	59%	44%	3300 nM	80%	4%	69%	30%	66%	remaining activity at 5 µM (SAPK2a/p38): 39%
Cc1nc(CS(=O)(=O)c2cccs2)sc1-c1ccnc(Nc2ccc(N3CCOCC3)cc2)n1 [Compound 138, {4-[4-Methyl-2-(thiophene-2-sulfonylmethyl)-thiazol-5-yl]-pyrimidin-2-yl}-(4-morpholin-4-yl-phenyl)-amine]	3980 nM	–	27%	27%	27%	5%	11%	44%	30%	14%	91%	15%	39%	59%	–	93%	5%	74%	91%	85%	remaining activity at 5 µM (SAPK2a/p38): 33%
